Laboratory results reported in PMC5444710, “Enhancement of radiosensitivity by the novel anticancer quinolone derivative vosaroxin in preclinical glioblastoma models” (Oncotarget, 2017).
Where a SMILES comes first, the peptide text is derived from it. The star is where a group is joined. Cbz = O=C(OCc1ccccc1)*; CH2F = FC*

Columns and labels:
[1] = test system: U87MG, U251, and T98G cells; test: Autophagy: acidic vesicular organelle (AVO) staining; type: cell-based, human; details: RT 4 Gy, 24 hours
Excerpt: As a marker of autophagy we evaluated the presence of AVOs after staining of cell cultures with LysoTracker® Red DND-99 kit (Life Technologies Italia, Monza, Italy) according to the manufacturer’s instructions. The intensity of the red fluorescence is proportional to the degree of acidity. The percentage of autophagic cells was quantified with the Tali® Image-Based Cytometer (Life Technologies) measuring fluorescence emission at 590 nm with fluorescence excitation at 577 nm. The results were expressed as the percentage of cell AVOs stained in controls and in treated cultures.

[2] = test system: T98G xenografts; test: Subcutaneous xenograft model: tumor weight and time to progression; type: in vivo, female CD1-nu/nu mice; details: T98G xenografts; day 35; VSR 10 mg/kg q 5 d for 5 wk IV; TMZ 16 mg/kg 5 consecutive days; RT single 4 Gy
Protocol: (§1) Female CD1-nu/nu mice, at 6 weeks of age, were purchased from Charles River (Milan, Italy) under the guidelines established by our institution (University of L’Aquila, Medical School and Science and Technology School Board Regulations, complying with Italian government regulation n.116, January 27, 1992, for the use of laboratory animals). All mice received subcutaneous flank injections (2 each) of 1 × 10^6 U251, U87MG, and T98G cells representing models for MGMT-negative and MGMT-positive cells. Tumor growth was assessed biweekly by measuring tumor diameters with a Vernier caliper (length × width). Tumor weight was calculated according to the formula tumor weight (mg) = tumor volume (mm^3) = d2 × D/2, where d and D are the shortest and longest diameters, respectively. The effects of the treatments were assessed as previously described. At about 10 days after the tumor injection, 30 mice with tumor volumes of 0.5–0.8 cm^3 were randomly divided into 6 groups (5 mice per group with 2 tumors each): (1) control (vehicle); (2) vosaroxin (10 mg/kg every 5 days for 5 weeks intravenous [IV] injection into tail vein; (3) radiotherapy (RT; 4 Gy delivered in a single fraction); (4) vosaroxin in combination with RT; (5) temozolomide (16 mg/kg 5 consecutive days) and (6) temozolomide in combination with RT. Anesthetized tumor-bearing mice received focal irradiation. Irradiation was delivered using an x-ray linear accelerator at a dose rate of 200 cGy/min at room temperature. All mice were shielded with a specially designed lead apparatus to allow irradiation to the right hind limb. At the end of the study (35 days after the start of treatments), animals were sacrificed by carbon dioxide inhalation and tumors were then removed surgically. Half of the tumor was directly frozen in liquid nitrogen for protein analysis and the other half was fixed in paraformaldehyde overnight for immunohistochemical analyses.
(§2) The following parameters were used to quantify the antitumor effects of different treatments as previously described: tumor volume, measured throughout the experiment; tumor weight, measured at the end of the experiment; tumor progression, defined as an increase of greater than 50% of tumor volume with respect to baseline; and time to progression (TTP), defined as the time until tumor progression was observed from baseline. Tumor size was measured with calipers and the TTP of a single tumor was calculated. TTP data were used to generate Kaplan-Meier curves for progression. This method of analysis was described previously, and may reduce both inter-subject variability resulting from differences in engraftment efficacy as well as intra-subject variability in response.
(§3) In vivo drug combination studies were evaluated using CalcuSyn. For CI calculations of dual administration, the values of % cell kill (%CK) for a fixed tumor volume were determined by the log CK (LCK). LCK was calculated as LCK = (T − C) / (3.32 × Td), where Td represented the mean control group doubling time required to reach a fixed tumor volume, expressed in days. T and C were the mean times in days required to reach the same fixed tumor volume in the treated group and the control group, respectively. CK was calculated as %CK = [1 − (1 − 10LCK)] × 100. Tumor growth delay (TGD) was calculated as %TGD = [(T − C) / C] × 100, where T and C were the same values as those reported by Bruzzese et al..

[3] = test system: U251 xenografts; test: as above; type: in vivo, female CD1-nu/nu mice; details: U251 xenografts; day 35; VSR 10 mg/kg q 5 d for 5 wk IV; TMZ 16 mg/kg 5 consecutive days; RT single 4 Gy
Protocol: as §1, §2, §3

[4] = test system: U87MG xenografts; test: as above; type: in vivo, female CD1-nu/nu mice; details: U87MG xenografts; day 35; VSR 10 mg/kg q 5 d for 5 wk IV; TMZ 16 mg/kg 5 consecutive days; RT single 4 Gy
Protocol: as §1, §2, §3

[5] = test system: luciferase-transfected U251 cells; test: Orthotopic intra-brain model (DFS, OS)

Cn1cnc(N)c2ncnc1-2 [3-methyladenine]
RT-induced AVO staining ([1]; 5 μM): reduced

Cn1nnc2c(C(N)=O)ncn2c1=O [temozolomide]
final tumor weight reduction compared with vehicle controls [2]: 25%
final tumor weight reduction compared with vehicle controls [3]: 54%
final tumor weight reduction compared with vehicle controls [4]: 53%
Disease-free Survival HR (95% CI) ([5]; TMZ vs VSR): 2.0 (0.9–5.5)
Overall Survival HR (95% CI) ([5]; TMZ vs VSR): 3.0 (1.0–8.8)
mean time of recurrence (DFS) ± SE ([5]; orthotopic U251-luciferase, treated for 35 days starting 5 days after cell injection): 68.3 ± 5.4 days

COC(=O)C[C@H](NC(=O)[C@H](C)NC(=O)[C@@H](NC(=O)OCc1ccccc1)C(C)C)C(=O)CF [z-Val-Ala-Asp(Ome)-fluoromethyl ketone] (Cbz-Val-Ala-Asp(OMe)-CH2F)
RT-induced AVO staining ([1]; 10 μM): further increased
